Test results as given in patent publication US4279915A, “Method of treatment using new leurosine derivatives” (priority 1973, dated 1981).

How the values were obtained:
[1] = acute toxicity in Swiss mice; type: in vivo, mouse; conditions: mouse, in vivo, Swiss mice
Text: (§1) ACUTE TOXICITY IN SWISS MICE
(§2) Table III lists the comparative toxicological data concerning Vincristine, Vinblastine and F-leurosine. The new analogue is approximately 7 times less toxic than Vincristine and 4 times less toxic than Vinblastine in acute rodent experiments.

Swiss mice = test: acute toxicity in Swiss mice; type: in vivo, mouse
Text: as §1, §2

NK/Ly lymphoma = test: antitumor effect on NK/Ly lymphoma; type: in vivo, mice
Text: This compound provides complete recovery or a 300 percent extension of life span in 50 to 70 percent of the cases, in tests on mice inoculated with Ehrlich ascites carcinoma or NK/Ly lymphoma.
(§3) EFFECT OF F-LEUROSINE ON ASCITIC TUMORS

S 37 ascites sarcoma = test: antitumor effect on S 37 ascites sarcoma; type: in vivo
Text: The treatment extends the life span of animals suffering from L-1210 lymphoid leukemia, s37 ascites sarcoma or Yoshida ascites sarcoma by about 150 to 250 percent.
as §3

Harding Passey melanoma = test: growth inhibition of Harding Passey melanoma; type: in vivo
rhabdomyo-sarcoma = test: growth inhibition of induced and transplanted rhabdomyo-sarcoma; type: in vivo
[2] = tolerability and therapeutical range in animal tests; type: in vivo
Method: A dose of 0.3 to 5.0 mg./kg. of body weight can also be used in human therapy, although the dosage can be as low as 0.01 mg./kg. daily.

[3] = tested on: haemoblastoses and leukemia; test: clinical treatment of patients with haemoblastoses and leukemia (Example A); type: in vivo, human
Method: Based on the experiences obtained on 17 patients during the first half-year, further 8 patients with haemoblastoses and leukemia were given treatment. The patients were given daily 0.05 mg/kg single doses. The clinical examinations during the second half-year were performed with the same daily dose, but with different total doses. The smallest total amount meant 3, the highest 12 subsequent doses. The dosage was tested both in forms of sequential and intermittent treatment.
3 patients out of 8 received the drug sequentially, which meant single doses on subsequent days, the remaining 5 patients were given intermittent treatment.
The intermittent treatment was made in two ways: 1. Single doses through 3 days, followed by 5 days interval as total up to an amount of 12 times 0.05 mg/kg. 2. Single dose on the first day, followed by 3 days interval, up to a total amount of 12 times 0.05 mg/kg.
The route of administration was always intravenous, 1 mg active substance was dissolved in 10 ml physiological saline.

solid tumors = test: clinical treatment of patients with solid tumors (Example B); type: in vivo, human; conditions: for decrease of prothrombin index and activity: by the 7th day of treatment
Method: N-formyl-leurosine was administered in form of i.v. injection as single treatment or in 5 and 2×5 day long periods continually to exclusively patients with solid tumors.
Simultaneously adjuvant therapy was applied (analgesics, antibiotics, cardiac drugs, roborants) if necessary.
Following single treatments primarily the effect on blood picture, and especially on leukocyte count was observed. In case of higher total doses given continuously for 5 or 10 days, liver function, enzymes, serum creatinine, uric acid level were also determined. The neurological condition of the patients was also controlled.

[4] = tested on: leukemias and haemoblastoses; test: therapeutic results in leukemias and haemoblastoses (Table VII); type: in vivo, human
Method: In addition, eight patients were added to the group treated on the basis of this schedule. Therapeutic results obtained by F-Leurosine in leukemias and haemoblastoses are listed in Table VII. |Therapeutic Results Obtained by F-Leurosine Treatment

[5] = tested on: granulocytes, lymphocytes, platelets; test: haematological parameters; type: in vivo
[6] = tested on: lymphoma, leukemia and Hodgkins disease; test: antitumor activity; type: in vivo
[7] = 0.05 mg/kg daily dose, applied 3-12 times

With `CCC12CN3CCc4c([nH]c5ccccc45)[C@@](C(=O)OC)(c4cc5c(cc4OC)N(C=O)[C@H]4[C@@](O)(C(=O)OC)[C@H](OC(C)=O)[C@]6(CC)C=CCN7CC[C@]54[C@@H]76)C[C@@H](C3)C1O2` (stereo partly shown) [N-formyl-leurosine] the LD50 ([1]; ip, 1 x i.p.) was 28.8 mg/kg, the LD50 ([1]; iv, 1 x i.v.) was 32.5 mg/kg and the “times less toxic than Vinblastine” value (Swiss mice; acute rodent experiments) was ~4 times. For the same compound, the “times less toxic than Vincristine” value (Swiss mice; acute rodent experiments) was “approximately 7 times”, the signs of neurotoxicity (Swiss mice; even subluthal doses, experimental animals) was “did not show any signs of neurotoxicity” and the “toxicity relative to vinblastine” value (Swiss mice; i.p., on mice (text b8)) was “about five times less toxic than vinblastine”. The “toxicity relative to vincristine” value (Swiss mice; i.p., on mice (text b8)) was “about ten times less toxic than vincristine”, the “extension of life span” value (NK/Ly lymphoma) was 300% and the Survival (NK/Ly lymphoma; 8 × 0.5 mg/kg i.p. daily) was 250. For the same compound, the Tumor free (NK/Ly lymphoma; 8 × 0.5 mg/kg i.p. daily) was 2/10, the Tumor free (S 37 ascites sarcoma; 4 × 2.5 mg/kg i.p. daily) was 4/6 and the Tumor inhibition (S 37 ascites sarcoma; 4 × 2.5 mg/kg i.p. daily) was 100. For the same compound, the Survival (S 37 ascites sarcoma; 8 × 1.0 mg/kg i.p. daily) was 268, the Tumor free (S 37 ascites sarcoma; 8 × 1.0 mg/kg i.p. daily) was 1/6 and the “extension of life span” value (S 37 ascites sarcoma; s37 ascites sarcoma, about) was 150-250%. For the same compound, the growth inhibition (Harding Passey melanoma) was “remarkable growth inhibition”, the growth inhibition (rhabdomyo-sarcoma) was “remarkable growth inhibition” and the side-effects ([2]; 0.3 to 5.0 mg./kg. for prolonged periods, animals) was “without causing side-effects characteristic of and unavoidable with the known vinca-alkaloids”. The “therapeutical range compared with vincristine” value ([2]; animal tests) was “somewhat similar to that of vincristine”, the “therapeutical range compared with vinleurosine” value ([2]; animal tests) was “about four times broader than that of vinleurosine” and the side effects [3, 7] was “does not produce any side effects”. For the same compound, the untoward neurological symptoms [3, 7] was “No untoward symptoms of a neurological respect appear”, the objective improvement ([3]; 0.05 mg/kg daily i.v., complete treatments) was “all complete treatments were followed by objective improvement” and the Complete remission ([3]; 0.05 mg/kg daily i.v., leukemic patients) was “both leukemic patients had complete remission”. The “effectiveness in acute leukemia and lymphomas” value ([3]; phase I examinations, acute leukemia (myeloblast and lymphoblast type) and lymphomas) was “equally effective in acute leukemia (myeloblast and lymphoblast type), and in lymphomas”, the cytostatic effect ([3]; summary) was “very effective cytostatic” and the “tumor growth: progress during the treatment” value (solid tumors; 0.018 mg/kg during 2×5 days, one case) was “express progress during the treatment”. For the same compound, the “tumor growth: regression by X-ray and touching” value (solid tumors; 0.030 mg/kg during 2×5 days, one case) was “slight regression”, the leukocyte count change (solid tumors; between the 3rd and 5th days) was “decreased again” and the leukocyte count level (solid tumors; between the 3rd and 5th days, remained over) was “over 3000”. For the same compound, the leukocyte count (solid tumors; between the 9th and 14th days) was “returns to the initial value”, the “tumor growth: other cases” value (solid tumors; continuous administration) was “No changes were found in other cases” and the “effect on tumor growth” value (solid tumors; continuous administration of 0.018-0.035 mg/kg doses) was “some effect was observed”. For the same compound, the qualitative blood picture (solid tumors; dose level presently used) was “no change was shown”, the “levels of enzymes (serum alk, phosphatase, SGOT, SGPT)” value (solid tumors; during the treatment) was “did not essentially change” and the leukocyte count (solid tumors; first 48 hours) was “increased”. The “liver function, urinalysis, serum creatinine and uric acid levels” value (solid tumors; human, in vivo) was “no changes or signs indicating toxicity were found”, the neurological side-effects (solid tumors; human, in vivo) was “not observed” and the “decrease of prothrombin index and activity” value (solid tumors; one case) was 50%. The “prothrombin-time, increase” value (solid tumors; six cases) was “increased in three cases out of six”, the “prothrombin time, decrease” value (solid tumors; two cases) was “very slightly decreased” and the “decrease of prothrombin index and activity” value (solid tumors; two cases) was 37%. It also gave a Complete remission ([4]; ALL, 1 patient) of 1 patients, a Complete remission ([4]; AML, 1 patient) of 1 patients and a Partial remission ([4]; AMoL, 1 patient) of 1 patients. It also gave a Partial remission ([4]; AUL, 1 patient) of 1 patients, a Partial remission ([4]; CLL, 3 patients) of 3 patients and a No response ([4]; Hodgkin's disease, 2 patients) of 2 patients. The No response ([4]; LSC, 5 patients) was 1 patients, the Partial remission ([4]; LSC, 5 patients) was 4 patients and the No response ([4]; Multiple myelomo, 6 patients) was 2 patients. It also gave a Partial remission ([4]; Multiple myelomo, 6 patients) of 4 patients, a No response ([4]; RSC, 2 patients) of 1 patients and a Partial remission ([4]; RSC, 2 patients) of 1 patients. The Complete remission ([4]; Total, 22 patients) was 2 patients, the No response ([4]; Total, 22 patients) was 6 patients and the Partial remission ([4]; Total, 22 patients) was 14 patients. The “lowering of number of granulocytes” value ([5]; 0.6 mg/kg) was 50%, the number of lymphocytes ([5]; 15 mg/kg) was “decreased only after administration of 15 mg/kg” and the platelet count ([5]; similar dose level) was “No significant changes”. For the same compound, the antitumor activity [6] was “favorable antitumor activity”.
